Like-named read-outs stand apart in the source and are kept apart here.
Legend:
Format in all cases: cell-based
[1] = target: T1, NorA multidrug efflux pump (Staphylococcus aureus, UniProt Q03325); assay: ethidium bromide efflux and accumulation in NorA-overexpressing SA-1199B cells; no effect in norA knockout SA-K1758
T1 construct: gene norA1199

[2] = target: T1, NorA multidrug efflux pump
[3] = target: T1, NorA multidrug efflux pump; assay: fluorescent efflux and accumulation in NorA-overexpressing, wild-type and knockout S. aureus cells

T1 sequence (Q03325 entry or part of it): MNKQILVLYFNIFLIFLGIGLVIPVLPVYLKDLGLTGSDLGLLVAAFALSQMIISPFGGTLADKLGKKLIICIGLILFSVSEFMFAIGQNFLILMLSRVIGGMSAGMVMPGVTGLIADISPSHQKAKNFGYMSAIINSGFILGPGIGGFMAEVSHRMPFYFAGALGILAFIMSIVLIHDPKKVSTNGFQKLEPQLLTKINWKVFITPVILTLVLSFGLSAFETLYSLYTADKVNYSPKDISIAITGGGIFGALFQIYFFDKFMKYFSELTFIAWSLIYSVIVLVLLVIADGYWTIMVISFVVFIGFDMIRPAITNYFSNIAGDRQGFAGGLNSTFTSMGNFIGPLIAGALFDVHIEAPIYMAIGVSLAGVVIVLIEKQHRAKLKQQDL

## Cc1c(O)cc2oc3c(c(=O)c2c1O)-c1ccccc1OC3O (stereo not drawn) [boeravinone B, 6,9,11-trihydroxy-10-methylchromeno[3,4-b]chromen-12(6H)-one]
[1]
  ethidium bromide efflux and accumulation in NorA-overexpressing SA-1199B cells;: in cells treated with boeravinone B, the efflux of ethidium bromide was prevented, resulting in the prolonged retention of fluorescence

## COC(=O)[C@H]1[C@H]2C[C@@H]3c4[nH]c5cc(OC)ccc5c4CCN3C[C@H]2C[C@@H](OC(=O)c2cc(OC)c(OC)c(OC)c2)[C@@H]1OC [reserpine]
[2]
  ethidium bromide efflux and accumulation in NorA-overexpressing SA-1199B cells;: Reserpine, a known efflux pump inhibitor, was used as the positive control in both studies.

## CC[n+]1c(-c2ccccc2)c2cc(N)ccc2c2ccc(N)cc21 [ethidium bromide]
[3]
  fluorescent efflux and accumulation in NorA-overexpressing, wild-type and knocko: a rapid decrease occurred in the fluorescence because of the NorA-mediated efflux of ethidium bromide
